Source: paper PMC10408569, “Recruitment of hexahydroquinoline as anticancer scaffold targeting inhibition of wild and mutants EGFR (EGFR^WT, EGFR^T790M, and EGFR^L858R)” (Journal of Enzyme Inhibition and Medicinal Chemistry, 2023)

Columns and labels:
Assay in all cases: NCI-60 anticancer screening (SRB)
Assay type in all cases: cell-based
HOP-92 = conditions: Homo sapiens; HOP-92, NSC lung cancer; one dose 10 μM; read-out: Growth Inhibition Percentage (GI %)
DU-145 = conditions: Homo sapiens; DU-145, prostate cancer; one dose 10 μM; read-out: Growth Inhibition Percentage (GI %)
MDA-MB-468 = conditions: Homo sapiens; MDA-MB-468, breast cancer; one dose 10 μM; read-out: Growth Inhibition Percentage (GI %)
SF-268 = conditions: Homo sapiens; SF-268, CNS cancer; one dose 10 μM; read-out: Growth Inhibition Percentage (GI %)
MALME-3M = conditions: Homo sapiens, melanoma, one dose 10 μM, read-out: Growth Inhibition Percentage (GI %)
ACHN = conditions: Homo sapiens, renal cancer, one dose 10 μM, read-out: Growth Inhibition Percentage (GI %)
SF-539 = conditions: Homo sapiens; SF-539, CNS cancer; one dose 10 μM; read-out: Growth Inhibition Percentage (GI %)
HCT-15 = conditions: Homo sapiens; HCT-15, colon cancer; one dose 10 μM; read-out: Growth Inhibition Percentage (GI %)
MDA-MB-435 = conditions: Homo sapiens; MDA-MB-435, melanoma; one dose 10 μM; read-out: Growth Inhibition Percentage (GI %)
SK-OV-3 = conditions: Homo sapiens; SK-OV-3, ovarian cancer; one dose 10 μM; read-out: Growth Inhibition Percentage (GI %)
CCRF-CEM = conditions: Homo sapiens, leukemia, one dose 10 μM, read-out: Growth Inhibition Percentage (GI %)
OVCAR-8 = conditions: Homo sapiens; OVCAR-8, ovarian cancer; one dose 10 μM; read-out: Growth Inhibition Percentage (GI %)
PC-3 = conditions: Homo sapiens; PC-3, prostate cancer; one dose 10 μM; read-out: Growth Inhibition Percentage (GI %)
OVCAR-5 = conditions: Homo sapiens; OVCAR-5, ovarian cancer; one dose 10 μM; read-out: Growth Inhibition Percentage (GI %)
IGROV1 = conditions: Homo sapiens, IGROV-1; IGROV1, ovarian cancer; one dose 10 μM; read-out: Growth Inhibition Percentage (GI %)
U251 = conditions: Homo sapiens, U-251; U251, CNS cancer; one dose 10 μM; read-out: Growth Inhibition Percentage (GI %)
RPMI-8226 = conditions: Homo sapiens; RPMI-8226, leukemia; one dose 10 μM; read-out: Growth Inhibition Percentage (GI %)
SK-MEL-28 = conditions: Homo sapiens; SK-MEL-28, melanoma; one dose 10 μM; read-out: Growth Inhibition Percentage (GI %)
A549/ATCC = conditions: Homo sapiens; A549/ATCC, NSC lung cancer; one dose 10 μM; read-out: Growth Inhibition Percentage (GI %)
K-562 = conditions: Homo sapiens, K562; K-562, leukemia; one dose 10 μM; read-out: Growth Inhibition Percentage (GI %)
SNB-75 = conditions: Homo sapiens; SNB-75, CNS cancer; one dose 10 μM; read-out: Growth Inhibition Percentage (GI %)
SF-295 = conditions: Homo sapiens; SF-295, CNS cancer; one dose 10 μM; read-out: Growth Inhibition Percentage (GI %)
HCT-116 = conditions: Homo sapiens; HCT-116, colon cancer; one dose 10 μM; read-out: Growth Inhibition Percentage (GI %)
UACC-257 = conditions: Homo sapiens; UACC-257, melanoma; one dose 10 μM; read-out: Growth Inhibition Percentage (GI %)
NCI-H226 = conditions: Homo sapiens; NCI-H226, NSC lung cancer; one dose 10 μM; read-out: Growth Inhibition Percentage (GI %)
SNB-19 = conditions: Homo sapiens; SNB-19, CNS cancer; one dose 10 μM; read-out: Growth Inhibition Percentage (GI %)
SR = conditions: Homo sapiens, leukemia, one dose 10 μM, read-out: Growth Inhibition Percentage (GI %)
EKVX = conditions: Homo sapiens, NSC lung cancer, one dose 10 μM, read-out: Growth Inhibition Percentage (GI %)

With CCOC(=O)C1=C(N)N(c2ccccc2)C2=C(C(=O)CC(C)(C)C2)C1c1ccc(F)cc1 (racemic) [8a, (±)-Ethyl 2-amino-4–(4-fluorophenyl)-7,7-dimethyl-5-oxo-1-phenyl-1,4,5,6,7,8-hexahydroquinoline-3-carboxylate] as the molecule, how does the inhibition at 10 µM (HOP-92) read?
The inhibition at 10 µM was less than 10%.

What about the inhibition at 10 µM (DU-145) of the same molecule?
The inhibition at 10 µM was less than 10%.

What about the inhibition at 10 µM (MDA-MB-468) of the same molecule?
Its inhibition at 10 µM is less than 10%.

And the inhibition at 10 µM (SF-268)?
Its inhibition at 10 µM is less than 10%.

What about the inhibition at 10 µM (MALME-3M) of the same molecule?
The inhibition at 10 µM was less than 10%.

And the inhibition at 10 µM (ACHN)?
The inhibition at 10 µM was less than 10%.

And the inhibition at 10 µM (SF-539)?
Its inhibition at 10 µM is less than 10%.

And the inhibition at 10 µM (HCT-15)?
The inhibition at 10 µM was less than 10%.

And the inhibition at 10 µM (MDA-MB-435)?
The inhibition at 10 µM was less than 10%.

What about the inhibition at 10 µM (SK-OV-3) of the same molecule?
Its inhibition at 10 µM is less than 10%.

What about the inhibition at 10 µM (CCRF-CEM) of the same molecule?
The inhibition at 10 µM was less than 10%.

And the inhibition at 10 µM (OVCAR-8)?
Its inhibition at 10 µM is less than 10%.

What about the inhibition at 10 µM (PC-3) of the same molecule?
The inhibition at 10 µM was less than 10%.

And the inhibition at 10 µM (OVCAR-5)?
Its inhibition at 10 µM is less than 10%.

And the inhibition at 10 µM (IGROV1)?
The inhibition at 10 µM was less than 10%.

And the inhibition at 10 µM (U251)?
The inhibition at 10 µM was less than 10%.

And the inhibition at 10 µM (RPMI-8226)?
Its inhibition at 10 µM is less than 10%.

What about the inhibition at 10 µM (SK-MEL-28) of the same molecule?
The inhibition at 10 µM was less than 10%.

What about the inhibition at 10 µM (A549/ATCC) of the same molecule?
The inhibition at 10 µM was less than 10%.

And the inhibition at 10 µM (K-562)?
Its inhibition at 10 µM is less than 10%.

What about the inhibition at 10 µM (SNB-75) of the same molecule?
The inhibition at 10 µM was less than 10%.

And the inhibition at 10 µM (SF-295)?
Its inhibition at 10 µM is less than 10%.

And the inhibition at 10 µM (HCT-116)?
Its inhibition at 10 µM is less than 10%.

What about the inhibition at 10 µM (UACC-257) of the same molecule?
The inhibition at 10 µM was less than 10%.

And the inhibition at 10 µM (NCI-H226)?
Its inhibition at 10 µM is less than 10%.

What about the inhibition at 10 µM (SNB-19) of the same molecule?
Its inhibition at 10 µM is less than 10%.

What about the inhibition at 10 µM (SR) of the same molecule?
The inhibition at 10 µM was less than 10%.

What about the inhibition at 10 µM (EKVX) of the same molecule?
Its inhibition at 10 µM is less than 10%.

CCOC(=O)C1=C(N)N(c2ccc(C)cc2)C2=C(C(=O)CC(C)(C)C2)C1c1ccccc1OC (racemic) [6h, (±)-Ethyl 2-amino-4–(2-methoxyphenyl)-7,7-dimethyl-1–(4-methylphenyl)-5-oxo-1,4,5,6,7,8-hexahydroquinoline-3-carboxylate] was tested. Which inhibition at 10 µM (HOP-92) did it give?
Its inhibition at 10 µM is less than 10%.

What about the inhibition at 10 µM (DU-145) of the same molecule?
Its inhibition at 10 µM is less than 10%.

What about the inhibition at 10 µM (MDA-MB-468) of the same molecule?
The inhibition at 10 µM was less than 10%.

And the inhibition at 10 µM (SF-268)?
The inhibition at 10 µM was less than 10%.

And the inhibition at 10 µM (MALME-3M)?
The inhibition at 10 µM was less than 10%.

What about the inhibition at 10 µM (ACHN) of the same molecule?
Its inhibition at 10 µM is less than 10%.

And the inhibition at 10 µM (SF-539)?
Its inhibition at 10 µM is less than 10%.

And the inhibition at 10 µM (HCT-15)?
Its inhibition at 10 µM is less than 10%.

What about the inhibition at 10 µM (MDA-MB-435) of the same molecule?
The inhibition at 10 µM was less than 10%.

What about the inhibition at 10 µM (SK-OV-3) of the same molecule?
The inhibition at 10 µM was less than 10%.

And the inhibition at 10 µM (CCRF-CEM)?
The inhibition at 10 µM was less than 10%.

What about the inhibition at 10 µM (OVCAR-8) of the same molecule?
Its inhibition at 10 µM is less than 10%.

And the inhibition at 10 µM (PC-3)?
The inhibition at 10 µM was less than 10%.

What about the inhibition at 10 µM (OVCAR-5) of the same molecule?
Its inhibition at 10 µM is less than 10%.

What about the inhibition at 10 µM (IGROV1) of the same molecule?
The inhibition at 10 µM was less than 10%.

And the inhibition at 10 µM (U251)?
The inhibition at 10 µM was less than 10%.

What about the inhibition at 10 µM (RPMI-8226) of the same molecule?
The inhibition at 10 µM was less than 10%.

What about the inhibition at 10 µM (SK-MEL-28) of the same molecule?
The inhibition at 10 µM was less than 10%.

What about the inhibition at 10 µM (A549/ATCC) of the same molecule?
Its inhibition at 10 µM is less than 10%.

And the inhibition at 10 µM (K-562)?
Its inhibition at 10 µM is less than 10%.

What about the inhibition at 10 µM (SNB-75) of the same molecule?
The inhibition at 10 µM was less than 10%.

And the inhibition at 10 µM (SF-295)?
Its inhibition at 10 µM is less than 10%.

And the inhibition at 10 µM (HCT-116)?
Its inhibition at 10 µM is less than 10%.

And the inhibition at 10 µM (UACC-257)?
Its inhibition at 10 µM is less than 10%.

And the inhibition at 10 µM (NCI-H226)?
Its inhibition at 10 µM is less than 10%.

What about the inhibition at 10 µM (SNB-19) of the same molecule?
The inhibition at 10 µM was less than 10%.

What about the inhibition at 10 µM (SR) of the same molecule?
Its inhibition at 10 µM is less than 10%.

And the inhibition at 10 µM (EKVX)?
Its inhibition at 10 µM is less than 10%.

Which results are given for CCOC(=O)C1=C(N)N(c2ccc(C)cc2)C2=C(C(=O)CC(C)(C)C2)C1c1cccnc1 (racemic) [12e, (±)-Ethyl 2-amino-7,7-dimethyl-1–(4-methylphenyl)-5-oxo-1-phenyl-4-(pyrdin-3-yl)-1,4,5,6,7,8-hexahydroquinoline-3-carboxylate]?
inhibition at 10 µM (HOP-92): < 10%; inhibition at 10 µM (DU-145): < 10%; inhibition at 10 µM (MDA-MB-468): < 10%; inhibition at 10 µM (SF-268): < 10%; inhibition at 10 µM (MALME-3M): < 10%; inhibition at 10 µM (ACHN): < 10%; inhibition at 10 µM (SF-539): < 10%; inhibition at 10 µM (HCT-15): < 10%; inhibition at 10 µM (MDA-MB-435): < 10%; inhibition at 10 µM (SK-OV-3): < 10%; inhibition at 10 µM (CCRF-CEM): < 10%; inhibition at 10 µM (OVCAR-8): < 10%; inhibition at 10 µM (PC-3): 12%; inhibition at 10 µM (OVCAR-5): < 10%; inhibition at 10 µM (IGROV1): < 10%; inhibition at 10 µM (U251): < 10%; inhibition at 10 µM (RPMI-8226): 11%; inhibition at 10 µM (SK-MEL-28): < 10%; inhibition at 10 µM (A549/ATCC): < 10%; inhibition at 10 µM (K-562): < 10%; inhibition at 10 µM (SNB-75): 14%; inhibition at 10 µM (SF-295): < 10%; inhibition at 10 µM (HCT-116): < 10%; inhibition at 10 µM (UACC-257): < 10%; inhibition at 10 µM (NCI-H226): < 10%; inhibition at 10 µM (SNB-19): < 10%; inhibition at 10 µM (SR): < 10%; inhibition at 10 µM (EKVX): < 10%
